According to ChEMBL document CHEMBL2429768, “Eco-friendly synthesis and antimicrobial activities of substituted-5-(1H-indol-3-yl)methylene)-2,2-dimethyl-1,3-dioxane-4,6-dione derivatives” (2013):
≈ marks a conversion by molar mass, not a printed value.

Assays:
Format in all cases: functional
[1] = test system: Bacillus subtilis; assay: Antibacterial activity against Bacillus subtilis at 500 ug/ml after 24 hrs by agar well diffusion method; conditions: read-out: DIZ
[2] = test system: Staphylococcus aureus; assay: Antibacterial activity against Staphylococcus aureus ATCC 6538 at 50 ug/ml after 24 hrs by agar well diffusion method; conditions: ATCC 6538, 24 h, read-out: DIZ
[3] = test system: Bacillus subtilis; assay: Antibacterial activity against Bacillus subtilis at 200 ug/ml after 24 hrs by agar well diffusion method; conditions: read-out: DIZ
[4] = test system: Staphylococcus aureus; assay: Antibacterial activity against Staphylococcus aureus ATCC 6538 at 100 ug/ml after 24 hrs by agar well diffusion method; conditions: ATCC 6538, 24 h, read-out: DIZ
[5] = test system: Aspergillus niger; assay: Antifungal activity against Aspergillus niger at 100 ug/ml after 72 hrs by agar well diffusion method
[6] = test system: Fusarium oxysporum; assay: Antifungal activity against Fusarium oxysporum after 72 hrs by agar well diffusion method
[7] = test system: Staphylococcus aureus; assay: Antibacterial activity against Staphylococcus aureus ATCC 6538 after 24 hrs by agar well diffusion method; conditions: ATCC 6538, 24 h
[8] = test system: Klebsiella pneumoniae; assay: Antibacterial activity against Klebsiella pneumoniae at 100 ug/ml after 24 hrs by agar well diffusion method; conditions: read-out: DIZ
[9] = test system: Klebsiella pneumoniae; assay: Antibacterial activity against Klebsiella pneumoniae at 200 ug/ml after 24 hrs by agar well diffusion method; conditions: read-out: DIZ
[10] = test system: Aspergillus niger; assay: Antifungal activity against Aspergillus niger after 72 hrs by agar well diffusion method
[11] = test system: Rhizoctonia solani; assay: Antifungal activity against Rhizoctonia solani at 500 ug/ml after 72 hrs by agar well diffusion method
[12] = test system: Bacillus subtilis; assay: Antibacterial activity against Bacillus subtilis at 50 ug/ml after 24 hrs by agar well diffusion method; conditions: read-out: DIZ
[13] = test system: Escherichia coli; assay: Antibacterial activity against Escherichia coli ATCC 8739 at 500 ug/ml after 24 hrs by agar well diffusion method; conditions: ATCC 8739, 24 h, read-out: DIZ
[14] = test system: Aspergillus flavus; assay: Antifungal activity against Aspergillus flavus at 300 ug/ml after 72 hrs by agar well diffusion method
[15] = test system: Aspergillus niger; assay: Antifungal activity against Aspergillus niger at 300 ug/ml after 72 hrs by agar well diffusion method
[16] = test system: Aspergillus niger; assay: Antifungal activity against Aspergillus niger at 500 ug/ml after 72 hrs by agar well diffusion method
[17] = test system: Aspergillus flavus; assay: Antifungal activity against Aspergillus flavus at 100 ug/ml after 72 hrs by agar well diffusion method
[18] = test system: Fusarium oxysporum; assay: Antifungal activity against Fusarium oxysporum at 50 ug/ml after 72 hrs by agar well diffusion method
[19] = test system: Aspergillus flavus; assay: Antifungal activity against Aspergillus flavus at 50 ug/ml after 72 hrs by agar well diffusion method
[20] = test system: Bacillus subtilis; assay: Antibacterial activity against Bacillus subtilis at 300 ug/ml after 24 hrs by agar well diffusion method; conditions: read-out: DIZ
[21] = test system: Rhizoctonia solani; assay: Antifungal activity against Rhizoctonia solani at 100 ug/ml after 72 hrs by agar well diffusion method
[22] = test system: Rhizoctonia solani; assay: Antifungal activity against Rhizoctonia solani at 200 ug/ml after 72 hrs by agar well diffusion method
[23] = test system: Aspergillus flavus; assay: Antifungal activity against Aspergillus flavus after 72 hrs by agar well diffusion method
[24] = test system: Fusarium oxysporum; assay: Antifungal activity against Fusarium oxysporum at 200 ug/ml after 72 hrs by agar well diffusion method
[25] = test system: Escherichia coli; assay: Antibacterial activity against Escherichia coli ATCC 8739 at 100 ug/ml after 24 hrs by agar well diffusion method; conditions: ATCC 8739, 24 h, read-out: DIZ
[26] = test system: Rhizoctonia solani; assay: Antifungal activity against Rhizoctonia solani at 50 ug/ml after 72 hrs by agar well diffusion method
[27] = test system: Klebsiella pneumoniae; assay: Antibacterial activity against Klebsiella pneumoniae at 300 ug/ml after 24 hrs by agar well diffusion method; conditions: read-out: DIZ
[28] = test system: Klebsiella pneumoniae; assay: Antibacterial activity against Klebsiella pneumoniae at 50 ug/ml after 24 hrs by agar well diffusion method; conditions: read-out: DIZ
[29] = test system: Rhizoctonia solani; assay: Antifungal activity against Rhizoctonia solani after 72 hrs by agar well diffusion method
[30] = test system: Escherichia coli; assay: Antibacterial activity against Escherichia coli ATCC 8739 at 300 ug/ml after 24 hrs by agar well diffusion method; conditions: ATCC 8739, 24 h, read-out: DIZ
[31] = test system: Aspergillus niger; assay: Antifungal activity against Aspergillus niger at 50 ug/ml after 72 hrs by agar well diffusion method
[32] = test system: Bacillus subtilis; assay: Antibacterial activity against Bacillus subtilis after 24 hrs by agar well diffusion method
[33] = test system: Aspergillus flavus; assay: Antifungal activity against Aspergillus flavus at 500 ug/ml after 72 hrs by agar well diffusion method
[34] = test system: Fusarium oxysporum; assay: Antifungal activity against Fusarium oxysporum at 100 ug/ml after 72 hrs by agar well diffusion method
[35] = test system: Fusarium oxysporum; assay: Antifungal activity against Fusarium oxysporum at 500 ug/ml after 72 hrs by agar well diffusion method
[36] = test system: Staphylococcus aureus; assay: Antibacterial activity against Staphylococcus aureus ATCC 6538 at 300 ug/ml after 24 hrs by agar well diffusion method; conditions: ATCC 6538, 24 h, read-out: DIZ
[37] = test system: Staphylococcus aureus; assay: Antibacterial activity against Staphylococcus aureus ATCC 6538 at 500 ug/ml after 24 hrs by agar well diffusion method; conditions: ATCC 6538, 24 h, read-out: DIZ
[38] = test system: Klebsiella pneumoniae; assay: Antibacterial activity against Klebsiella pneumoniae at 500 ug/ml after 24 hrs by agar well diffusion method; conditions: read-out: DIZ
[39] = test system: Bacillus subtilis; assay: Antibacterial activity against Bacillus subtilis at 100 ug/ml after 24 hrs by agar well diffusion method; conditions: read-out: DIZ
[40] = test system: Aspergillus niger; assay: Antifungal activity against Aspergillus niger at 200 ug/ml after 72 hrs by agar well diffusion method
[41] = test system: Klebsiella pneumoniae; assay: Antibacterial activity against Klebsiella pneumoniae after 24 hrs by agar well diffusion method
[42] = test system: Aspergillus flavus; assay: Antifungal activity against Aspergillus flavus at 200 ug/ml after 72 hrs by agar well diffusion method
[43] = test system: Escherichia coli; assay: Antibacterial activity against Escherichia coli ATCC 8739 at 200 ug/ml after 24 hrs by agar well diffusion method; conditions: ATCC 8739, 24 h, read-out: DIZ
[44] = test system: Escherichia coli; assay: Antibacterial activity against Escherichia coli ATCC 8739 after 24 hrs by agar well diffusion method; conditions: ATCC 8739, 24 h
[45] = test system: Staphylococcus aureus; assay: Antibacterial activity against Staphylococcus aureus ATCC 6538 at 200 ug/ml after 24 hrs by agar well diffusion method; conditions: ATCC 6538, 24 h, read-out: DIZ
[46] = test system: Rhizoctonia solani; assay: Antifungal activity against Rhizoctonia solani at 300 ug/ml after 72 hrs by agar well diffusion method
[47] = test system: Fusarium oxysporum; assay: Antifungal activity against Fusarium oxysporum at 300 ug/ml after 72 hrs by agar well diffusion method
[48] = test system: Escherichia coli; assay: Antibacterial activity against Escherichia coli ATCC 8739 at 50 ug/ml after 24 hrs by agar well diffusion method; conditions: ATCC 8739, 24 h, read-out: DIZ

Compound `CC1(C)OC(=O)C(=Cc2c[nH]c3ccc(Br)cc23)C(=O)O1` has a zone of inhibition at 500 µg/mL [1] of 25 mm, a zone of inhibition at 50 µg/mL [2] of 8 mm and a zone of inhibition at 200 µg/mL [3] of 13 mm. For the same compound, the zone of inhibition at 100 µg/mL [4] was 12 mm, the zone of inhibition at 100 µg/mL ([5]; read-out: DIZ) was 11 mm and the MIC [6] was 25 µg/mL (≈ 71.4 µM). For the same compound, the MIC [7] was 20 µg/mL (≈ 57.1 µM), the zone of inhibition at 100 µg/mL [8] was 16 mm and the zone of inhibition at 200 µg/mL [9] was 20 mm. For the same compound, the MIC [10] was 30 µg/mL (≈ 85.7 µM), the zone of inhibition at 500 µg/mL ([11]; read-out: DIZ) was 32 mm and the zone of inhibition at 50 µg/mL [12] was 7 mm. For the same compound, the zone of inhibition at 500 µg/mL [13] was 32 mm, the zone of inhibition at 300 µg/mL ([14]; read-out: DIZ) was 17 mm and the zone of inhibition at 300 µg/mL ([15]; read-out: DIZ) was 19 mm. It also gave a zone of inhibition at 500 µg/mL ([16]; read-out: DIZ) of 26 mm, a zone of inhibition at 100 µg/mL ([17]; read-out: DIZ) of 10 mm and a zone of inhibition at 50 µg/mL ([18]; read-out: DIZ) of 10 mm. The zone of inhibition at 50 µg/mL ([19]; read-out: DIZ) was 5 mm, the zone of inhibition at 300 µg/mL [20] was 17 mm and the zone of inhibition at 100 µg/mL ([21]; read-out: DIZ) was 15 mm. The zone of inhibition at 200 µg/mL ([22]; read-out: DIZ) was 19 mm, the MIC [23] was 35 µg/mL (≈ 100 µM) and the zone of inhibition at 200 µg/mL ([24]; read-out: DIZ) was 17 mm. The zone of inhibition at 100 µg/mL [25] was 15.5 mm, the zone of inhibition at 50 µg/mL ([26]; read-out: DIZ) was 10 mm and the zone of inhibition at 300 µg/mL [27] was 25 mm. The zone of inhibition at 50 µg/mL [28] was 11 mm, the MIC [29] was 25 µg/mL (≈ 71.4 µM) and the zone of inhibition at 300 µg/mL [30] was 23 mm. It also gave a zone of inhibition at 50 µg/mL ([31]; read-out: DIZ) of 7 mm, an MIC [32] of 20 µg/mL (≈ 57.1 µM) and a zone of inhibition at 500 µg/mL ([33]; read-out: DIZ) of 24 mm. For the same compound, the zone of inhibition at 100 µg/mL ([34]; read-out: DIZ) was 14 mm, the zone of inhibition at 500 µg/mL ([35]; read-out: DIZ) was 31 mm and the zone of inhibition at 300 µg/mL [36] was 19 mm. For the same compound, the zone of inhibition at 500 µg/mL [37] was 27 mm, the zone of inhibition at 500 µg/mL [38] was 34 mm and the zone of inhibition at 100 µg/mL [39] was 11.5 mm. The zone of inhibition at 200 µg/mL ([40]; read-out: DIZ) was 15 mm, the MIC [41] was 10 µg/mL (≈ 28.6 µM) and the zone of inhibition at 200 µg/mL ([42]; read-out: DIZ) was 13 mm. It also gave a zone of inhibition at 200 µg/mL [43] of 16 mm, an MIC [44] of 10 µg/mL (≈ 28.6 µM) and a zone of inhibition at 200 µg/mL [45] of 15 mm. The zone of inhibition at 300 µg/mL ([46]; read-out: DIZ) was 24 mm, the zone of inhibition at 300 µg/mL ([47]; read-out: DIZ) was 21 mm and the zone of inhibition at 50 µg/mL [48] was 10.4 mm.
Compound `CN[C@@H]1[C@H](O[C@H]2[C@H](O[C@H]3[C@H](O)[C@@H](O)[C@H](N=C(N)N)[C@@H](O)[C@@H]3N=C(N)N)O[C@@H](C)[C@]2(O)C=O)O[C@@H](CO)[C@H](O)[C@H]1O` [STREPTOMYCIN] has a zone of inhibition at 500 µg/mL [1] of 28 mm, a zone of inhibition at 50 µg/mL [2] of 10 mm and a zone of inhibition at 200 µg/mL [3] of 17 mm. The zone of inhibition at 100 µg/mL [4] was 15 mm, the MIC [7] was 10 µg/mL (≈ 17.2 µM) and the zone of inhibition at 100 µg/mL [8] was 18 mm. The zone of inhibition at 200 µg/mL [9] was 24 mm, the zone of inhibition at 50 µg/mL [12] was 9 mm and the zone of inhibition at 500 µg/mL [13] was 36 mm. The zone of inhibition at 300 µg/mL [20] was 20 mm, the zone of inhibition at 100 µg/mL [25] was 17 mm and the zone of inhibition at 300 µg/mL [27] was 28 mm. The zone of inhibition at 50 µg/mL [28] was 13 mm, the zone of inhibition at 300 µg/mL [30] was 26 mm and the MIC [32] was 20 µg/mL (≈ 34.4 µM). The zone of inhibition at 300 µg/mL [36] was 22 mm, the zone of inhibition at 500 µg/mL [37] was 31 mm and the zone of inhibition at 500 µg/mL [38] was 37 mm. The zone of inhibition at 100 µg/mL [39] was 14 mm, the MIC [41] was 5 µg/mL (≈ 8.6 µM) and the zone of inhibition at 200 µg/mL [43] was 23 mm. It also gave an MIC [44] of 5 µg/mL (≈ 8.6 µM), a zone of inhibition at 200 µg/mL [45] of 19 mm and a zone of inhibition at 50 µg/mL [48] of 12 mm.
With NYSTATIN the inhibition zone (IZ) [5] was 14 mm, the MIC [6] was 15 µg/mL and the MIC [10] was 20 µg/mL. The inhibition zone (IZ) [11] was 38 mm, the inhibition zone (IZ) [14] was 22 mm and the inhibition zone (IZ) [15] was 23 mm. The inhibition zone (IZ) [16] was 34 mm, the inhibition zone (IZ) [17] was 13 mm and the inhibition zone (IZ) [18] was 15 mm. For the same compound, the inhibition zone (IZ) [19] was 11 mm, the inhibition zone (IZ) [21] was 20 mm and the inhibition zone (IZ) [22] was 22 mm. It also gave an MIC [23] of 20 µg/mL, an inhibition zone (IZ) [24] of 21 mm and an inhibition zone (IZ) [26] of 16 mm. It also gave an MIC [29] of 15 µg/mL, an inhibition zone (IZ) [31] of 11.2 mm and an inhibition zone (IZ) [33] of 32 mm. For the same compound, the inhibition zone (IZ) [34] was 18 mm, the inhibition zone (IZ) [35] was 37 mm and the inhibition zone (IZ) [40] was 16.6 mm. For the same compound, the inhibition zone (IZ) [42] was 16 mm, the inhibition zone (IZ) [46] was 30 mm and the inhibition zone (IZ) [47] was 29 mm.
